From patent publication US20250145631A1, “HETEROCYCLIC COMPOUND ACTING ON G12D MUTANT KRAS PROTEIN” (Astellas Pharma Inc., priority 2022, published 2025)

Target: T1, KRAS G12D (Homo sapiens, UniProt P01116, G12D)
T1 construct: host or cells: AsPC-1 (human pancreatic cancer line)
Experiment: KRAS degradation activity by Cell ELISA in AsPC-1 cells (Test Example 1)
Format: cell-based
Details: Cell ELISA; for Dmax: ASPC1, overnight treatment, read-out: Dmax (degradation rate at the concentration showing highest degradation); for DC50: overnight treatment, read-out: DC50 (50% degradation concentration of KRAS)
In short: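 AsPC-1 cells (2.0×10^4/well) treated overnight with compounds at 10 μM–0.3 nM (10 points), then fixed, permeabilised and stained for KRAS G12D (800 nm) and β-actin (700 nm) by in-cell ELISA. KRAS signal normalised to β-actin, DMSO set as 0% and actin-only staining as 100%; DC50 from Sigmoid-Emax regression up to Dmax.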

T1 sequence (P01116 1-188 isoform P01116-2 G12D): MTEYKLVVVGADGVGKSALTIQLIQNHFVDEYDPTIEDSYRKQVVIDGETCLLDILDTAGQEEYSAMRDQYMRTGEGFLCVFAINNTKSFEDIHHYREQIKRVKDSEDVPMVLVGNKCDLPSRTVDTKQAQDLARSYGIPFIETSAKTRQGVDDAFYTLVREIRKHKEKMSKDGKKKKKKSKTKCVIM

Row | Dmax | DC50 | Structure (SMILES)
1 | 86% | 13 nM | Cc1c(F)cc2[nH]ncc2c1-c1c(C2CC2)cc2c(N3C[C@@H]4C[C@H]3CN4)nc(OC3CCOCC3)nc2c1OCc1ccc(C(=O)N2CCN(Cc3ccc4c(c3)n(C)c(=O)n4C3CCC(=O)NC3=O)C[C@@H]2C)cc1 (stereo partly drawn) [Example 8, 3-(5-{[(3S)-4-{4-[({(7M)-6-cyclopropyl-4-[(1S,4S)-2,5-diazabicyclo[2.2.1]heptan-2-yl]-7-(6-fluoro-5-methyl-1H-indazol-4-yl)-2-[(oxan-4-yl)oxy]quinazolin-8-yl}oxy)methyl]benzoyl}-3-methylpiperazin-1-yl]methyl}-3-methyl-2-oxo-2,3-dihydro-TH-benzimidazol-1-yl)piperidine-2,6-dione]
2 | 86% | 8 nM | CO[C@@H](C)COc1nc(N2C[C@@H]3C[C@H]2CN3)c2cc(C3CC3)c(-c3c(C)c(F)cc4[nH]ncc34)c(OCc3ccc(C(=O)N4CCN(Cc5ccc6c(c5)n(C)c(=O)n6C5CCC(=O)NC5=O)C[C@@H]4C)cc3)c2n1 (stereo partly drawn) [Example 10, 3-(5-{[(3S)-4-{4-[({(7M)-6-cyclopropyl-4-[(1S,4S)-2,5-diazabicyclo[2.2.1]heptan-2-yl]-7-(6-fluoro-5-methyl-1H-indazol-4-yl)-2-[(2S)-2-methoxypropoxy]quinazolin-8-yl}oxy)methyl]benzoyl}-3-methylpiperazin-1-yl]methyl}-3-methyl-2-oxo-2,3-dihydro-1H-benzimidazol-1-yl)piperidine-2,6-dione]
3 | 82% | 18 nM | CO[C@@H](C)COc1cc(O[C@H]2CCNC2)c2cc(C3CC3)c(-c3c(C)c(F)cc4[nH]ncc34)c(OCc3ccc(C(=O)N4CCN(Cc5ccc6c(c5)n(C)c(=O)n6C5CCC(=O)NC5=O)C[C@@H]4C)cc3)c2n1 (stereo partly drawn) [Example 12, 3-[5-({(3S)-4-[4-({[6-cyclopropyl-7-(6-fluoro-5-methyl-1H-indazol-4-yl)-2-[(2S)-2-methoxypropoxy]-4-{[(3S)-pyrrolidin-3-yl]oxy}quinolin-8-yl]oxy}methyl)benzoyl]-3-methylpiperazin-1-yl}methyl)-3-methyl-2-oxo-2,3-dihydro-1H-benzimidazol-1-yl]piperidine-2,6-dione]
4 | 86% | 22 nM | CO[C@@H](C)COc1cc(N2C[C@@H]3C[C@H]2CN3)c2cc(C3CC3)c(-c3c(C)c(F)cc4[nH]ncc34)c(OCc3ccc(C(=O)N4CCN(Cc5ccc6c(c5)n(C)c(=O)n6C5CCC(=O)NC5=O)C[C@@H]4C)cc3)c2n1 (stereo partly drawn) [Example 29, 3-(5-{[(3S)-4-{4-[({6-cyclopropyl-4-[(1S,4S)-2,5-diazabicyclo[2.2.1]heptan-2-yl]-7-(6-fluoro-5-methyl-1H-indazol-4-yl)-2-[(2S)-2-methoxypropoxy]quinolin-8-yl}oxy)methyl]benzoyl}-3-methylpiperazin-1-yl]methyl}-3-methyl-2-oxo-2,3-dihydro-1H-benzimidazol-1-yl)piperidine-2,6-dione]
